# According to the supplement of paper PMC11451515:
# Tested on: SEM cells
# Test: cell viability relative to DMSO control; higher = less cytotoxic
# Settings: 48 h
# Procedure, shortened: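 Viability is a per-plate percentage relative to DMSO wells, with cell-free wells as background. CellTiter-Glo One luminescence was read after 48 h at 37°C on 1536-well plates (5 μl) of NOMO1 or SEM (500 cells/well) or P12-Ichikawa (1000 cells/well) leukemia cells. The cells had been adapted for at least four passages in each medium and pin-dosed with library compounds in DMSO from 47 μM to 0.79 nM in 11 threefold steps.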
# [1] = HPLM + 10% dialyzed FBS, 0.000781 µM
# [2] = HPLM + 10% dialyzed FBS, 0.00234 µM
# [3] = HPLM + 10% dialyzed FBS, 0.00702 µM
# [4] = HPLM + 10% dialyzed FBS, 0.0211 µM
# [5] = HPLM + 10% dialyzed FBS, 0.0632 µM
# [6] = HPLM + 10% dialyzed FBS, 0.19 µM
# [7] = HPLM + 10% dialyzed FBS, 0.569 µM
# [8] = HPLM + 10% dialyzed FBS, 1.71 µM
# [9] = HPLM + 10% dialyzed FBS, 5.12 µM
# [10] = HPLM + 10% dialyzed FBS, 15.4 µM
# [11] = HPLM + 10% dialyzed FBS, 46.1 µM
# [12] = RPMI 5 mM glucose + 10% FBS, 0.000781 µM
# [13] = RPMI 5 mM glucose + 10% FBS, 0.00234 µM
# [14] = RPMI 5 mM glucose + 10% FBS, 0.00702 µM
# [15] = RPMI 5 mM glucose + 10% FBS, 0.0211 µM
# [16] = RPMI 5 mM glucose + 10% FBS, 0.0632 µM
# [17] = RPMI 5 mM glucose + 10% FBS, 0.19 µM
# [18] = RPMI 5 mM glucose + 10% FBS, 0.569 µM
# [19] = RPMI 5 mM glucose + 10% FBS, 1.71 µM
# [20] = RPMI 5 mM glucose + 10% FBS, 5.12 µM
# [21] = RPMI 5 mM glucose + 10% FBS, 15.4 µM
# [22] = RPMI 5 mM glucose + 10% FBS, 46.1 µM
# [23] = RPMI 5 mM glucose + 10% dialyzed FBS, 0.000781 µM
# [24] = RPMI 5 mM glucose + 10% dialyzed FBS, 0.00234 µM
# [25] = RPMI 5 mM glucose + 10% dialyzed FBS, 0.00702 µM
# [26] = RPMI 5 mM glucose + 10% dialyzed FBS, 0.0211 µM
# [27] = RPMI 5 mM glucose + 10% dialyzed FBS, 0.0632 µM
# [28] = RPMI 5 mM glucose + 10% dialyzed FBS, 0.19 µM
# [29] = RPMI 5 mM glucose + 10% dialyzed FBS, 0.569 µM
# [30] = RPMI 5 mM glucose + 10% dialyzed FBS, 1.71 µM
# [31] = RPMI 5 mM glucose + 10% dialyzed FBS, 5.12 µM
# [32] = RPMI 5 mM glucose + 10% dialyzed FBS, 15.4 µM
# [33] = RPMI 5 mM glucose + 10% dialyzed FBS, 46.1 µM
SMILES,cell viability [1],cell viability [2],cell viability [3],cell viability [4],cell viability [5],cell viability [6],cell viability [7],cell viability [8],cell viability [9],cell viability [10],cell viability [11],cell viability [12],cell viability [13],cell viability [14],cell viability [15],cell viability [16],cell viability [17],cell viability [18],cell viability [19],cell viability [20],cell viability [21],cell viability [22],cell viability [23],cell viability [24],cell viability [25],cell viability [26],cell viability [27],cell viability [28],cell viability [29],cell viability [30],cell viability [31],cell viability [32],cell viability [33]
CCC(=O)N[C@H]1CC[C@H](C(=O)N(C)c2ccc(-c3nc4ccccc4o3)cc2)C1,75.9%,68%,99.7%,94.2%,99.8%,104%,101%,89%,110%,115%,96.4%,83.3%,51.8%,78.4%,89.5%,84.7%,101%,99.9%,82.2%,74.7%,74.2%,40%,91.9%,51.8%,83.5%,98.9%,98.4%,97%,96%,102%,94.7%,91%,45.3%
COc1ccc(C2Sc3ccccc3N(CCN(C)C)C(=O)C2OC(C)=O)cc1 (stereo unspecified),99.2%,111%,106%,115%,113%,117%,115%,112%,106%,112%,108%,113%,109%,86%,99.4%,103%,111%,111%,105%,99.2%,110%,69%,87.2%,112%,99.6%,101%,107%,115%,107%,109%,124%,95.5%,85.8%
